Test results taken from patent publication US12576059B2, “Methods and compositions for treatment of inflammatory disease” (priority 2021, dated 2026).

How the values were obtained:
[1] = system: LPS induced acute lung inflammation; assay: Example 1: LPS induced acute lung inflammation, interalveolar septa distance; format: in vivo, mice; details: for Interalveolar space (average spatial distance for the interalveolar septa): 6-week course, then single intranasal LPS
Text: LPS administration is known to promote inflammation through various mechanisms including secretion of pro-inflammatory cytokines, eicosanoids and induction of ROS. This example employed LPS to ascertain the extent of inflammation arising from ROS induced oxidation of H-AA versus D-AA in the lungs of mice. Specifically, four groups of mice were used. The first group was control mice treated with H-LA control mice. The second group of mice received a 6-week course of D-LA. It is understood that in vivo conversion of a portion of both H-LA and D-LA occurs to provide for AA and 13,13-D2-AA respectively. The third group of mice received a 6-week course of H-AA. The fourth group of mice received a 6-week course of D-AA. All groups then received a single intranasal administration of LPS to induce acute lung inflammation. The degree of the inflammatory response was based on the interalveolar septa distance where the larger the distance of the septa, the greater the degree of inflammation. The animals were sacrificed and the interalveolar septa distance was measured. Table 1 provides an average degree of spatial distance for the interalveolar septa for the results of all groups.

LPS-treated mice lungs = assay: Example 5: H-LA / D2-LA by oral gavage, then intranasal LPS, lung histology; format: in vivo, BALB/c mice; details: 6 weeks of H-LA or D2-LA, then 1 mg/kg intranasal LPS, 24 hours
Description: (§1) Lung, stomach and colon samples were fixed with 4% formaldehyde (freshly prepared from paraformaldehyde), paraffin embedded and cut into 2-4 μm sections. For routine histology, all fixed tissue sections were stained with hematoxylin-eosin (H&E). All slides were evaluated at 10 fields each using a Genetic Pro Bino light microscope (A) and photographed with a digital camera (Delta Optical). Stomach and colon tissue sections were analyzed for signs of active and chronic inflammation, formation of lymph follicles, and hyperplasia of epithelial cells. The severity of lung injury was scored according to lung pathological changes, including interalveolar and perivascular hemorrhages, peri-vascular and peribronchial infiltration, perivascular edema, thickness of alveolar wall, alveolar space value, and emphysematous transformations. Lung tissue samples were additionally stained with commercially available Martius Scarlet Blue (MSB) stain kit (Avantik, USA) for fibrin visualization. The presence of homogeneous fibrin masses of yellow, pink or red color in the lung blood vessels were interpreted as thrombotic masses.
In our first experiment, we evaluated the effects of linoleic acid (LA) supplementation on interalveolar septa thickness and AS in LPS-treated mice. […]

[2] = human, in vivo, po; cited from earlier work
[3] = system: LPS induced acute lung inflammation; assay: Example 2: LPS induced inflammation, H-AA versus D-AA, male and female mice; format: in vivo; details: 6-week course, then single intranasal LPS
Description: LPS administration was conducted as per Example 1 above except that four groups of mice were used. The first two groups (1 and 2) were control mice (male and female). The next two groups (3 and 4) of mice received a 6-week course of H-AA (male and female). Finally, the last two groups (5 and 6) of mice received a 6-week course of D6-AA (second group). Groups 3, 4, 5 and 6 then received a single intranasal administration of LPS to induce acute lung inflammation. The degree of the inflammatory response was determined per Example 1. Next, the height and distance of the interalveolar septa was determined to provide for the surface area of the inflammation.

healthy mice = details: in vivo
Description: (§2) Mouse diet was from Research Diets (New Brunswick, NJ) based on fat-free AIN-93G. Fat was added at 11.3% by weight total fat and 0.25% either normal H-AA or D-AA respectively (Table 5).
Male and Female BALB/c and C57BL/6 mice were provided with standard environmental conditions i.e., 22±1° C., 55±5% humidity and 12 h light/dark cycle with free food and water access. At the age of six weeks, animals were split into 8 groups (n=160 total, 20 of each gender) and were continuously fed ad libitum on the diet containing either H-AA or D-AA for 2, 4, 6 or 8 weeks at the daily rate of ca. 5 g of diet per mouse for the duration of the study. The other two groups of animals (n=40, 20 of each gender) received neither PUFA-enriched diets nor LPS served as controls. The body weight and food intake were measured once a week. After completing the appropriate diet course, half of the mice in each group (10 females and 10 males) (i) underwent the procedure of bronchoalveolar lavage (BAL) to accomplish cytological smears, (ii) were subjected to tissue harvesting and collection of colon contents (after humane euthanasia with lethal dose of sodium thiopental, 100 mg/kg intravenously). On the ninth week of this diet course, the other half of the group was administered 1 mg/kg of intranasal (IN) LPS from Escherichia coli O111:B4 (Sigma Aldrich) 24 hours prior to BAL and subsequent euthanasia. 40 D-AA fed animals (20 males, 20 females) were switched to the H-AA diet for washout experiments. […]
as §1, with “masses. […]” for “masses.”
Cell free BAL fluid supernatants as well as colon tissue samples were analyzed using commercially available Mouse IL-1B ELISA Kit (R&D systems, Lot P265854, USA) and the Biotek ELx-808 microplate reader (Biotek, USA) according to the instructions recommended by the manufacturer).

[4] = system: LPS-induced acute lung injury; assay: Example 5: response to intranasal LPS in mice fed AA diets (ALI model); format: in vivo, BALB/c and C57BL/6 mice
Description: as §2
Male and Female BALB/c and C57BL/6 mice were provided with standard environmental conditions i.e., 22±1° C., 55±5% humidity and 12 h light/dark cycle with free food and water access. At the age of six weeks, animals were split into 8 groups (n=160 total, 20 of each gender) and were continuously fed ad libitum on the diet containing either H-AA or D-AA for 2, 4, 6 or 8 weeks at the daily rate of ca. 5 g of diet per mouse for the duration of the study. The other two groups of animals (n=40, 20 of each gender) received neither PUFA-enriched diets nor LPS served as controls. The body weight and food intake were measured once a week. After completing the appropriate diet course, half of the mice in each group (10 females and 10 males) (i) underwent the procedure of bronchoalveolar lavage (BAL) to accomplish cytological smears, (ii) were subjected to tissue harvesting and collection of colon contents (after humane euthanasia with lethal dose of sodium thiopental, 100 mg/kg intravenously). On the ninth week of this diet course, the other half of the group was administered 1 mg/kg of intranasal (IN) LPS from Escherichia coli O111:B4 (Sigma Aldrich) 24 hours prior to BAL and subsequent euthanasia. 40 D-AA fed animals (20 males, 20 females) were switched to the H-AA diet for washout experiments.
Cell differential counts were performed on smear slides from resuspended cell pellets of BAL, using commercially available May-Grünwald-Giemsa staining kits. All slides were evaluated in a light microscope (Optec BK5000) at ×200 magnification. These cell counts such as lymphocytes, neutrophils, plasmacytes and macrophages were obtained from 10 fields of each slide.
as §1
We challenged mice fed AA-diets for 6 weeks using LPS treatment. […] Perivascular edema, signs of thrombosis, alveolar wall thickening, irregular distribution of air spaces, and focal areas of alveolar hemorrhage were also observed. We preferred intranasal administration to the more extreme intratracheal route that induces IL-1β which in turn amplifies inflammation making it difficult to distinguish between the early and late consequences of the LPS challenge. Indeed, 24 hours after intranasal administration of LPS at a dose of 1 mg/kg, there was no significant increase in the IL-1B content in BAL fluid or colon homogenates compared to animals not treated with LPS regardless of type or duration of the diets. Intranasal LPS 24 hours post administration increased neutrophils in BAL fluid in all treated groups regardless of gender or form of AA diets.

Structure (SMILES) | Interalveolar space (average spatial distance for the interalveolar septa) [1] | reduction in the spatial distance for the interalveolar septa ([1]; D-LA relative to H-LA, comparator for D-AA not stated) | alveolar wall / interalveolar septum thickness (in words) (LPS-treated mice lungs) | safety record [2] | Interalveolar space ([3]; female mice) | Interalveolar surface area ([3]; female mice) | Interalveolar space ([3]; male mice) | Interalveolar surface area ([3]; male mice) | alveolar wall thickness, H-AA versus D-AA cohorts (healthy mice; both, BALB/c and C57BL/6, mouse, 8 weeks) | alveolar spaces (healthy mice; mouse) | average thickness of interalveolar septa, H-AA versus D-AA (healthy mice; mouse) | tolerability (healthy mice; mouse) | LPS-induced interalveolar septa / wall thickening (in words) ([4]; 6-week diet, then single intranasal LPS) | LPS-induced lung tissue damage, inflammation and emphysema (in words) ([4]; dietary consumption prior to LPS exposure)
[2H]C([2H])(/C=C\CCCCC)/C=C\CCCCCCCC(=O)O [D-LA, 11,11-D2-Linoleic Acid] | 10.7 μm | ~25% | small, but statistically significant decrease | impressive safety record | – | – | – | – | – | – | – | – | – | –
CCCCC/C=C\C/C=C\C/C=C\C/C=C\CCCC(=O)O [H-AA, arachidonic acid, reference compound] | 9.1 μm | – | – | – | ~9.7 μm | ~380 μm^2 | ~8.1 μm | ~540 μm^2 | significantly (p≤0.05) thicker | No relevant changes | did not significantly differ | well tolerated without apparent adverse reactions | significantly increased | did not improve and even aggravated
CCCCC/C=C\C/C=C\CCCCCCCC(=O)O [H-LA, linoleic acid] | 14.2 μm | – | significantly higher | – | – | – | – | – | – | – | – | – | – | –
